According to patent US20230225990A1, “DIMETHYL SULFONE FOR TREATMENT OF CHRONICALLY HEAT STRESSED POULTRY” (Evonik Operations GmbH, priority 2020, published 2023):

Experiments:
[1] = test system: chronically heat stressed poultry; assay: Litter moisture; assay type: in vivo; conditions: control diet+0.05 wt.-% DMS; d-42
Text: For this purpose, two treatments (T1: control diet, and T2: control diet+0.05 wt.-% DMS) were done with 13 replicate pens each and 10 birds per pen. Collection of litter was done at days 28 and 42 to determine litter moisture. The sampling of the litter was done in five different points in each pen (each corner and the centre of each pen) and then homogenized to compose the representative sample of the pen. […] Calculating was done according to the formula: […]

[2] = test system: male broilers subjected to chronic cyclic heat stress; assay: Carcass yield and portions on d-40; assay type: in vivo, broiler chickens (Ross 308); conditions: d-40 after overnight fasting
Text: Sampling of two birds per pen (with weight close to average weight of the pen) on d-40 after overnight fasting (no heat stress that day) • Carcass yield, breast percentage, thigh percentage, drumstick percentage and abdominal fat • Carcass yield: with skin, bled, without internal organs, without feet, without head, without neck, without abdominal fat; relative to bird body weight • Breast percentage: skinless, boneless; relative to bird body weight • Thigh percentage: with skin, with bone; relative to bird body weight • Drumstick percentage: with skin, with bone; relative to bird body weight • Abdominal fat percentage: abdominal fat; relative to bird body weight • Breast meat quality • Scoring of breast myopathies (wooden breast and white striping) • Wooden breast: normal, 0; mild, 1 and severe, 2 • White striations: normal, 0; mild, 1, and severe, 2 • pH and colour, both at time 0 h and 24 h (after sampling at time 0 h, breasts are stored at 4° C. until 24 h) • Drip loss, determined for periods 0-24 h and for period 0-72 h (after sampling at time 0 h, breasts are stored at 4° C. until 72 h, and weight without exuded water at 24 h and 72 h) • Press loss, determined at 24 h (after sampling at time 0 h, breasts are stored at 4° C. until 24 h, prior to determine press loss) • Oxidative stability (TBARS after simulated retail display)

Q: For `CS(C)(=O)=O` [DMS, dimethyl sulfone], which “Moisture content in the litter” value [1] is on record?
A: The value was “clear reduction”.

Q: And the Body weight ([2]; 0.1% DMS in diet (T2))?
A: The Body weight was 3010 g.

Q: What about the Body weight ([2]; 0.2% DMS in diet (T3)) of the same compound?
A: Its Body weight is 2980 g.
